# Measurements from patent US10100088B2, “Glycopeptide derivatives for the preservation and protection of biological materials and microorganisms” (TFCHEM, priority 2014, dated 2018).
# Like-named read-outs stand apart in the source and are kept apart here.
# Key:
# [1] = tested on: human neonatal skin fibroblasts (CCD-27SK, ATCC CRL-1475); assay: Starvation (serum deprivation) stress, neutral red uptake viability; type: cell-based
# Description: Induced stresses were performed as follow: Starvation
# (§1) The neutral red uptake assay was used for the determination of cell viability. This assay is based on the ability of viable cells to incorporate and bind the supravital dye neutral red in its lysosomes. So, only the viable cells are dyed. At different times after the stress assay (T0), the plates were incubated with neutral red solution for 3.5 hours. The cells are subsequently washed, the dye is extracted in each well and the absorbance is read using a spectrophotometer.
# (§2) For sampling, 1 mL of DMEM (without phenol red indicator) with neutral red (OD=0.110) was added to the cells for 3.5 hours (37° C., 10% CO2). After incubation, the medium was removed, two washes of PBS were realized and 1 mL of extraction solution (absolute ethanol 49%, ultrapure water 49%, glacial acetic acid 2%) was added. Plates were placed 15 minutes on rotary shaker in the dark before reading OD at 540 nm.
# The OD540 nm average value of positive control was considered as 100% of viability.
# (§3) The percentage of viability for each assay was calculated as follow: % viability assay=(OD540 nm of tested solution−blank)*100/(OD540 nm of positive control−blank).
# [2] = tested on: human neonatal skin fibroblasts; assay: UV stress (11 J/cm^2), neutral red uptake viability; type: cell-based
# Description: as §1, §2, §3
# [3] = tested on: neonatal skin fibroblasts (CCD-27SK, ATCC CRL-1475); conditions: for Percentage of viability: 5 mg/mL in serum free medium
# Description: II-1. Effect of Glycopeptide 17 on the Preservation/Protection of Neonatal Skin Fibroblasts Under Starvation Conditions. Evaluation by Trypan Blue Exclusion Method.
# • The neonatal skin fibroblasts (Cell line: CCD-27SK, ATCC number CRL-1475) were grown with DMEM medium supplemented with Fetal Bovine Serum 10% final, antibiotics (Penicillin/Streptomycin) 1% final and Amphotericin B 0.1% final. • Fibroblasts were grown in 75 cm^2 culture flask to 80% confluence, in 37° C. and 10% CO2 incubator. The medium was changed every two days by 37° C. preheated fresh medium. Starvation Medium • This medium was composed of 45% subculturing medium without Fetal Bovine Serum mixed with 55% of Phosphate Buffer Saline 1× containing EDTA (final concentration of 0.45 mM). This was referred to as serum-free medium. Product Preparation • Compound 17 (MM=603.4 g/mol) was diluted in starvation medium to 5 mg/ml final and pH was adjusted at 7.4 by addition of NaOH 1N. General Experimental Procedure Assays on 96 Well Plates • Fibroblast cells were concentrated to 2.10^5 cells/ml and 100 μl of cell suspension was added in wells of a 96-well plate and incubated in 37° C. and 10% CO2 incubator for 4 hours. • After cell adhesion the medium was changed and plates were incubated (37° C.-10% CO2) to perform the assay as follow: • One plate for each sampling times: D0, D3, D4, D5, D6, D7, D10, D12 days • Three wells for each condition (triplicate count) added with 120 μl of culture medium (surviving control), starvation medium (serum-free control) or compound 17 solution at 5 mg/ml. […] So, only the dead cells are blue at microscopic observation. • For sampling, 110 μl of Trypan Blue (SIGMA T8154) was added to 110 μl of trypsinated cell suspension of matching well for counting. • […] of the trypan blue/cell mixture are dropped to a hemacytometer. Cells are counting by using a Neubauer-counting chamber. The unstained (viable) and stained (nonviable) cells are counted separately on 9 areas of 1 mm^2 forming a large square of 9 mm^2 and added to obtain the total number of cells per sample. An average of three counts was used to calculate the viability percentage as: [Number of viable cells/total number of cells]*100 • The cell viability percentages from cultures under starvation conditions were compared with control culture for several days after their addition (D0, D3, D4, D5, D6, D7, D10, D12).
smiles,measurement,setting,value
C[C@H](NC(=O)[C@H](C)NC(=O)[C@@H](N)CCCCNCC(F)(F)C1(O)O[C@H](CO)[C@H](O)[C@H](O)[C@H]1O)C(=O)O.Cl.Cl (stereo partly drawn) [Compound 17],Percentage of viability,"[1]; D 1 after serum deprivation, 5 mg/mL (Table 2)",75%
same,Percentage of viability,"[1]; D 1 after serum deprivation, 10 mg/mL (Table 2)",71%
same,Percentage of viability,"[1]; D 4 after serum deprivation, 5 mg/mL (Table 2)",54%
same,Percentage of viability,"[1]; D 4 after serum deprivation, 10 mg/mL (Table 2)",61%
same,Percentage of viability,"[1]; D4 after serum deprivation, 10 mg/mL (Table 4)",116%
same,Percentage of viability,"[1]; D 7 after serum deprivation, 5 mg/mL (Table 2)",45%
same,Percentage of viability,"[1]; D 7 after serum deprivation, 10 mg/mL (Table 2)",55%
same,preservative/protective effect on skin fibroblasts (in words),[1]; starvation medium,significant preservative/protective effect
same,preservative/protective effect against UV stress (in words),[2],preservative/protective effect against UV stress
same,Percentage of viability following UV stress (11 J/cm^2),"[2]; 1 h after irradiation, 5 mg/mL",55%
same,Percentage of viability following UV stress (11 J/cm^2),"[2]; 1 h after irradiation, 10 mg/mL",53%
same,Percentage of viability following UV stress (11 J/cm^2),"[2]; 1 h after irradiation, 15 mg/mL",50%
same,Percentage of viability following UV stress (11 J/cm^2),"[2]; 3 h after irradiation, 5 mg/mL",63%
same,Percentage of viability following UV stress (11 J/cm^2),"[2]; 3 h after irradiation, 10 mg/mL",46%
same,Percentage of viability following UV stress (11 J/cm^2),"[2]; 3 h after irradiation, 15 mg/mL",50%
same,Percentage of viability following UV stress (11 J/cm^2),"[2]; 24 h after irradiation, 5 mg/mL",82%
same,Percentage of viability following UV stress (11 J/cm^2),"[2]; 24 h after irradiation, 10 mg/mL",94%
same,Percentage of viability following UV stress (11 J/cm^2),"[2]; 24 h after irradiation, 15 mg/mL",84%
same,growth or regenerative effect on stressed cells (in words),[2]; viability increased in time after UV,growth or regenerative effect
same,Percentage of viability,[3]; D 0,96.69 ± 1.85%
same,Percentage of viability,"[3]; D 0, listed as compound 17",97%
same,Percentage of viability,[3]; D 3,91.03 ± 1.88%
same,Percentage of viability,[3]; D 4,88.98 ± 2.48%
same,Percentage of viability,[3]; D 5,86.65 ± 4.26%
same,Percentage of viability,[3]; D 6,85.53 ± 1.57%
same,Percentage of viability,[3]; D 7,83.20 ± 3.72%
same,Percentage of viability,[3]; D 10,80.62 ± 3.72%
same,Percentage of viability,[3]; D 12,77.03 ± 2.02%
same,Percentage of viability,"[3]; D 12, listed as compound 17",77%
same,preservative/protective effect on skin fibroblasts (in words),"[3]; starvation medium, 5 mg/ml, 12 days",significant preservative/protective effect
